Data reported in patent US12544343B2, “Treatment of inflammatory condition in mucous membrane or skin” (MUCOCORT AB, priority 2019, dated 2026).
Entries after “also recorded” stand apart in the source; their conditions may differ.

Assays:
pig oral mucosa = assay: Dehydration effect towards oral mucosa (immersion of tissue in solution)
Experimental: Fresh pig oral mucosa (300-700 mg) was equilibrated at room temperature at 40% relative humidity (RH), weighed and immersed in 5 ml of the investigated solution for 20 h at room temperature (RT, ˜20-25° C.). The tissue was removed from the solution, dried by blotting and weighed. Finally, it was dried at +40° C. for 24 h.

PBMC = format: cell-based, human
Experimental: This Example investigated whether the inhibition of TNF-α in Example 2 and/or IL-2 in Example 3 was due to cell death of the PBMCs.
PBMCs were isolated from one donor as described in Example 1. 1 ml of 2×10^6 PBMC cells were added to 12 wells in a 24-well plate. 1 ml of 2000 mM propane-1,2-diol was added to two of the wells to get a final concentration of 1000 mM (8% propane-1,2-diol). The same procedure was used to obtain decreasing concentrations of propane-1,2-diol (500 mM (4% propane-1,2-diol), 250 mM (2% propane-1,2-diol), 125 mM (1% propane-1,2-diol), 62.5 mM (0.5% propane-1,2-diol)). After 24 hrs incubation at 37° C. and 5% CO2, 15 μl of each cell culture was mixed with 15 μl of tryptan blue and dead cells out of 100 cells were counted under a light microscope.

TNF-α production = TNF-α production by LPS-stimulated human PBMC (ELISA); format: cell-based
Experimental: (§1) Human venous blood was sampled and collected in heparinized vials and mix well by gently inverting the tubes several times. Human peripheral blood mononuclear cells (PBMCs) were isolated by gradient centrifugation using Ficoll-Histopaque®. Cells were washed (centrifuged at 400×g for 10 min) with sterile phosphate-buffered saline (PBS). PBS was discarded, and the cell pellet re-suspended in sterile Dulbecco's Modified Eagle's Medium (DMEM). Cells were then counted by haemocytometer using white blood cell (W.B.C.) diluting fluid: 15 μl of cell suspension was added to 15 μl trypan blue and mixed well. The cell suspension was loaded in a haemocytometer and the cells were counted. The cell concentration was adjusted at 2×10^6 cells/ml with DMEM supplemented with 1% of penicillin-streptomycin solution and 5% human serum. The approximate yield of cells varied between 107-10^8 cells/ml. 1 ml of cell suspension was seeded in a 24 well culture plate. 1 ml propane-1,2-diol diluted in DMEM was added at various concentrations (from 0 to 100 mM). Phytohemagglutinin (PHA), 15 μl, was added to a final concentration of 1 μg/ml. When the effect of different concentrations of PHA were studied (FIG. 1), the range used varied from 0 to 25 μg/ml. The plate was incubated for 24 h at +37° C. and in 5% CO2. The plate was then frozen at −20° C. until further analysis. After thawing the samples, an enzyme-linked immunosorbent assay (ELISA) was performed according to the manufacturer's specifications. In vitro culture of human PBMCs was performed as described above in Example 1. In brief, 1 ml propane-1,2-diol was added to 1 ml PBMC to obtain a range of 30 final concentrations (0 to 100 mM). 15 μl LPS was added to a final concentration of 100 nM and the cell suspension was incubated at 37° C. in 5% CO2 for 24 h. The plate was then frozen in −20° C. until the ELISA analysis. TNF-α production was determined by ELISA using procedures (BioSite, Sweden; Art. No: EA102165) according to the manufacturer's specifications.

IL-2 production = IL-2 production by PHA-stimulated human PBMC (ELISA); format: cell-based; conditions: 100 mM propane-1,2-diol, 1 μg/ml PHA-stimulated PBMC, FIG. 4
Experimental: as §1, with “[…] IL-2” for “The plate was incubated for 24 h at +37° C. and in 5% CO2. The plate was then frozen at −20° C. until further analysis. After thawing the samples, an enzyme-linked immunosorbent assay (ELISA) was performed according to the manufacturer's specifications. In vitro culture of human PBMCs was performed as described above in Example 1. In brief, 1 ml propane-1,2-diol was added to 1 ml PBMC to obtain a range of 30 final concentrations (0 to 100 mM). 15 μl LPS was added to a final concentration of 100 nM and the cell suspension was incubated at 37° C. in 5% CO2 for 24 h. The plate was then frozen in −20° C. until the ELISA analysis. TNF-α”

## CC(O)CO (stereo not shown) [propane-1,2-diol]
Pig oral mucosa; propane-1,2-diol solutions at concentration of 1% and 5%
  dehydration effect at 1% and 5%: No dehydration effect
Pig oral mucosa; propane-1,2-diol solutions at concentrations 50%, 80% and 100%
  dehydration effect at 50%, 80% and 100%: dehydration effect was evident
PBMC
  cell death of peripheral blood mononuclear cells at 5% (w/v): induced a significant cell death
  toxic effect / cell death of PBMCs, up to 1%: did not have any significant toxic effect
  toxic effects / cell death at an amount according to the invention: does not have any significant toxic effects
TNF-α production; 0 to 100 mM, LPS-stimulated PBMC from 4 individuals, FIGS. 1A-1D
  inhibition of TNF-α, concentration dependence: concentration-dependent inhibition
TNF-α production; 100 mM propane-1,2-diol, LPS-stimulated PBMC from 4 individuals, 24 h, FIGS. 1A-1D
  inhibition of TNF-α at 100 mM: maximal inhibition; also recorded: strong inhibition
TNF-α production; 100 mM, LPS-stimulated PBMCs from 12 different individuals, FIG. 2
  inhibition of TNF-α in PBMC from 12 individuals: inhibition was observed in all 12 individuals
IL-2 production; patient A
  IL-2 production reduced, patient A: 53%
IL-2 production; patient B
  IL-2 production reduced, patient B: 64%
